Each structure is given as a SMILES string. Like-named read-outs stand apart in the source and are kept apart here.

The values that follow come from PMC6687188, “Novel lactate dehydrogenase inhibitors with in vivo efficacy against Cryptosporidium parvum” (PLoS Pathogens, 2019).

The target of series [1] is T1, recombinant CpLDH protein (Cryptosporidium parvum, UniProt Q9GT92, F198L/K295E/R251K). The settings on record: for Km: pyruvate/NADH: reduction reaction pH 7.5, lactate/NAD+: oxidation reaction pH 9.2, 25°C; for Kcat / Vmax: pyruvate/NADH: reduction reaction, lactate/NAD+: oxidation reaction. On the procedure:
The coding sequence of CpLDH was cloned from cDNA prepared from the AUCP-1 isolate of C. parvum, and the His-tagged CpLDH recombinant protein expressed in Escherichia coli, and purified in native form essentially as previously described. Briefly, cDNA was prepared from total RNA extracted from the AUCP-1 isolate of C. parvum, and the coding sequence of CpLDH (Genebank accession number AF274310.1) was PCR-amplified from the cDNA using the primer pair 5’-[…]-3’ (Forward, with the XhoI restriction site italicized and start codon in bold) and 5’-[…]-3’ (Reverse, with the BamHI site italicized and stop codon in bold). The PCR amplicon was cloned at the XhoI/BamHI site of the pET15b expression vector in-frame with the hexahistidine (His-tag) at the N-terminal and sequenced to confirm identity. The recombinant expression vector was transformed into protein expression E. coli BL21-CodonPlus-DE3-RIL (Stratagene). Transformed E. coli was cultured at 37°C in Luria broth medium (supplemented with 100 μg/ml ampicillin and 34 μg/ml chloramphenicol) to an A600 of 0.8 followed by addition of 1 mM isopropyl-β-D-thiogalactopyranoside to induce protein expression. The expression E. coli was harvested and lysed under native conditions by sonicating in lysis buffer (50 mM NaH2PO4, 300 mM NaCl, 10 mM Imidazole, pH 8.0) containing a 1x EDTA-free protease inhibitor cocktail, 600 units benzonase and 30 kU lysozyme (EMD Millipore). The lysate was clarified by centrifugation and the His-tagged recombinant protein purified under native conditions by nickel-affinity chromatography according to the manufacturer's instructions (Novagen). The wash buffer used contained 50 mM NaH2PO4, 300 mM NaCl and 20 mM Imidazole, pH 8.0, while the elution buffer was composed of 50 mM NaH2PO4, 300 mM NaCl, 250 mM Imidazole, pH 8.0. The eluate was dialyzed using a buffer containing 5 mM Hepes–KOH (pH 7.8) and 0.5 mM DTT. The purity of the recombinant protein was determined by SDS/PAGE, and the concentration measured using a Qubit 3.0 fluorometer (Life technologies). […] On the other hand, the catalytic activity of CpLDH recombinant protein for the oxidation of lactate to pyruvate was determined by measuring the change in optical density of a 100 μl reaction mixture containing 100 mM lactate, 1 mM NAD^+, 100 mM Tris, pH 9.2, with varying concentrations of CpLDH recombinant protein at 25°C. […] In all assays, reaction mixtures without recombinant CpLDH protein were included as negative controls. All assays were performed in triplicate and repeated at least thrice. The change in optical density was measured every 15 seconds for a total of 2 minutes using a Spectra Max 384 Plus plate reader (Molecular Devices) at a wave length of 340 nm.

Series [2] concerns the target T1, recombinant CpLDH protein. Particulars: value in parentheses; ref Zhang et al., 2015 [11]; cited from earlier work.
A further series deals with HCT-8 cells. Kind of series: Compound cytotoxicity assay (WST-1 cell proliferation reagent). The procedure:
(§1) A colorimetric assay using the cell proliferation reagent WST-1 (Roche, USA) for the quantification of cell viability was performed. […] When the cells were confluent, the old medium was replaced with fresh medium with or without varying concentrations of chemical compound. After 24 h of culture, 10 μl of the cell proliferation reagent WST-1, (for quantification of cell viability) was added to each well, mixed and the plates incubated for 1 h at 37 C with 5% CO2 in the dark. […] Three independent assays were performed and the dose–response curves of the means of triplicate assays were generated using GraphPad PRISM software to derive the half maximal inhibitory concentration (IC50) of compounds in HCT-8 cells.

The target in series [3] is T1, recombinant CpLDH protein.
Series [4] addresses T1, recombinant CpLDH protein. Particulars: cited from earlier work.
Series [5] can be described thus: Compound cytotoxicity assay (WST-1 cell proliferation reagent). The settings on record: human. The procedure:
as §1

On to `CC(=O)C(=O)O` [Pyruvate, pyruvate], for which, in series [1], the “Km for pyruvate lower than that for lactate” value is “at least 54 fold”, the “Vmax for pyruvate higher than that for lactate” value came to 123 fold, the Km is 731 µM and the Kcat was 8.42 s⁻¹. The Vmax in series [1] turned out to be 5.04 nmol⁻¹ µg⁻¹ min⁻¹. For the same compound, in series [2], the Kcat is 16.10 s⁻¹, the Km is 427 µM and the Vmax was 12.89 nmol⁻¹ µg⁻¹ min⁻¹.

As to `CC(O)C(=O)O` (stereo not shown) [Lactate, lactate], in series [1], the Km was 39600 µM, the Kcat turned out to be 0.07 s⁻¹ and the Vmax was 0.04 nmol⁻¹ µg⁻¹ min⁻¹. In series [2], the Kcat is 0.66 s⁻¹, the Km was 10800 µM and the Vmax is 0.53 nmol⁻¹ µg⁻¹ min⁻¹.

Take `NC(=O)c1ccc[n+]([C@@H]2O[C@H](COP(=O)([O-])OP(=O)(O)OC[C@H]3O[C@@H](n4cnc5c(N)ncnc54)[C@H](O)[C@@H]3O)[C@@H](O)[C@H]2O)c1` [NAD^+]: in series [1], the Km stood at 56 µM, the Kcat stood at 0.11 s⁻¹ and the Vmax was determined as 0.07 nmol⁻¹ µg⁻¹ min⁻¹. For the same compound, in series [2], the Kcat was 0.70 s⁻¹, the Km is 62 µM and the Vmax is 0.56 nmol⁻¹ µg⁻¹ min⁻¹.

Consider `O=C(CC(=O)C(F)(F)F)c1csc2ccccc12` [NSC80396], for which, in the series with HCT-8 cells, the IC50 is 91.9 µM. For the same compound, the “MEAN CpLDH INHIBITION (%)” value in series [3] was -8.51%.

In the case of `Cc1cc2c(C(C)C)c(O)c(O)c(C=O)c2c(O)c1-c1c(C)cc2c(C(C)C)c(O)c(O)c(C=O)c2c1O` [gossypol], the “enzymatic activity of CpLDH (in words)” value in series [4] is on record as “able to inhibit”.

Compound `CC(O)CCC(=O)c1ccoc1` (stereo not shown) [NSC349438] yielded an IC50 in the series with HCT-8 cells of 93.9 µM. For the same compound, the “MEAN CpLDH INHIBITION (%)” value in series [3] is 13.12%.

`CN(C)C(=S)SSC(=S)N(C)C` [NSC1771] had a 50% inhibitory concentration (IC50) at 24 h in series [5] of 110 µM.

`Cc1cc2c(c3oc(C4(C)OC4C4OC4C)cc(=O)c13)C(=O)c1c(O)c(C3CC(C)(N(C)C)C(O)C(C)O3)cc(C3CC(N(C)C)C(O)C(C)O3)c1C2=O` (stereo not shown) [NSC70929] had an IC50 in the series on HCT-8 cells of 181 µM. The “MEAN CpLDH INHIBITION (%)” value in series [3] is recorded as 13.50%.

In the case of `O=S(=O)(O)c1cc(N=Nc2cc(S(=O)(=O)O)c3cccnc3c2O)ccc1/C=C/c1ccc(N=Nc2cc(S(=O)(=O)O)c3cccnc3c2O)cc1S(=O)(=O)O` [NSC638352], the IC50 in the series with HCT-8 cells turned out to be 116 µM. Besides, the “MEAN CpLDH INHIBITION (%)” value in series [3] stood at 43.74%.

`COC(=O)C1=C(C(=O)OC)SC2(S1)C(C(=O)OC)=C(C(=O)OC)Sc1c2ssc1=O` [NSC686349]: in the series on HCT-8 cells, half-maximal inhibition (IC50) required 283 µM. The “MEAN CpLDH INHIBITION (%)” value in series [3] came to 31.74%.

Take `O=C([CH-]C(=O)C(F)(F)F)c1ccccc1.O=C([CH-]C(=O)C(F)(F)F)c1ccccc1.O=C([CH-]C(=O)C(F)(F)F)c1ccccc1.O=C([CH-]C(=O)C(F)(F)F)c1ccccc1.[Eu+3].c1ccncc1` [NSC253995]: the IC50 in the series on HCT-8 cells is 83 µM. Moreover, the “MEAN CpLDH INHIBITION (%)” value in series [3] stood at 25.71%.

`Cc1cc2c(C(C)C)c(O)c(O)c(C=O)c2c(O)c1-c1c(C)cc2c(C(C)C)c(O)c(O)c(C=O)c2c1O` [NSC56817] returned an IC50 at 24 h in series [5] of 64.2 µM.

`O=Cc1cc([N+](=O)[O-])no1` [NSC626433]: the IC50 in the series with HCT-8 cells turned out to be 265 µM. In addition, in series [3], the “MEAN CpLDH INHIBITION (%)” value was found to be 48.62%.

`O=C1/C(=C/c2ccccc2)CN(C(=O)/C=C/c2ccccc2)C/C1=C\c1ccccc1` [NSC638634] came in with an IC50 in the series with HCT-8 cells of 157 µM. Besides, the “MEAN CpLDH INHIBITION (%)” value in series [3] turned out to be 0.30%.

Take `O=[N+]([O-])c1ccc2c(N=Nc3c(O)ccc4ccccc34)c(O)cc(S(=O)(=O)[O-])c2c1.[Na+]` [NSC73413]: in the series on HCT-8 cells, the IC50 was 220 µM. For the same compound, in series [3], the “MEAN CpLDH INHIBITION (%)” value is listed as 54.98%.

Take `COc1ccc(/C=C/C(=O)Oc2cc(O)cc(O)c2)cc1` [NSC175296]: the IC50 in the series on HCT-8 cells is 156 µM. Moreover, in series [3], the “MEAN CpLDH INHIBITION (%)” value came out at 0.00%.

Take `O=[N+]([O-])c1cccc2c(N=Nc3ccc4ccccc4c3O)c(O)cc(S(=O)(=O)O)c12.[Na+]` [NSC85561]: half-maximal inhibition in the series on HCT-8 cells (IC50) required 103 µM. In series [3], the “MEAN CpLDH INHIBITION (%)” value came to 73.45%.

Turning to `NC(=O)C1=CN([C@@H]2O[C@H](COP(=O)(O)OP(=O)(O)OC[C@H]3O[C@@H](n4cnc5c(N)ncnc54)[C@H](O)[C@@H]3O)[C@@H](O)[C@H]2O)C=CC1` [NADH], in series [1], the Km was 734 µM and the Vmax was 6.29 nmol⁻¹ µg⁻¹ min⁻¹.

In the series on HCT-8 cells, `O=c1oc2cc(O)ccc2c2oc3cc(O)ccc3c12` [NSC22842] returned an IC50 of 83.5 µM. In series [3], the “MEAN CpLDH INHIBITION (%)” value was determined as 3.48%.

`O=S(=O)([O-])c1cc(N=Nc2cc(S(=O)(=O)[O-])c3ccccc3c2O)ccc1/C=C/c1ccc(N=Nc2cc(S(=O)(=O)[O-])c3ccccc3c2O)cc1S(=O)(=O)[O-].[Na+].[Na+].[Na+].[Na+]` [NSC34931] returned an IC50 with HCT-8 cells of 71.1 µM. In addition, the “MEAN CpLDH INHIBITION (%)” value in series [3] amounted to 43.74%.

In the series on HCT-8 cells, `[Cl][Cd][Cl]` [NSC51148] had an IC50 of 39.6 µM. In addition, in series [3], the “MEAN CpLDH INHIBITION (%)” value is given as 64.58%.

For the compound `CCCc1c(O)c(O)c(C(=O)O)c2cc(Cc3ccccc3)c(C)cc12` [FX11], the “enzymatic activity of CpLDH (in words)” value in series [4] is on record as “able to inhibit”.

Consider `N#CCCN(CCC#N)Cc1cc(O)c(CN(CCC#N)CCC#N)cc1O` [NSC70925], for which the IC50 in the series on HCT-8 cells turned out to be 142 µM. The “MEAN CpLDH INHIBITION (%)” value in series [3] came out at 68.17%.

In turn, `CCOC(C)C(C=NNC(N)=S)=NNC(N)=S` (stereo not shown) [NSC82116] registered an IC50 in the series with HCT-8 cells of 118 µM. Besides, the “MEAN CpLDH INHIBITION (%)” value in series [3] turned out to be 10.05%.
